From ChEMBL document CHEMBL4680155, “One-pot synthesis and molecular docking of some new spiropyranindol-2-one derivatives as immunomodulatory agents and in vitro antimicrobial potential with DNA gyrase inhibitor” (Eur J Med Chem, 2020)
In brackets after ≈: the same amount, converted by molar mass. Activity calls are given as the source filed them. The rule behind the calls is not given here.

Columns and labels:
[1] = system: Candida albicans; assay: Antifungal activity against Candida albicans ATCC 10231 assessed as diameter of inhibition zone at 0.5 mg/ml incubated for 24 hrs by agar diffusion method; type: functional; settings: read-out: DIZ
[2] = system: Aspergillus brasiliensis; assay: Antifungal activity against Aspergillus brasiliensis ATCC 16404 assessed as diameter of inhibition zone at 0.5 mg/ml incubated for 72 hrs by agar diffusion method; type: functional; settings: read-out: DIZ
[3] = system: Staphylococcus aureus; assay: Antibacterial activity against Staphylococcus aureus ATCC 29213 assessed as diameter of inhibition zone at 0.5 mg/ml incubated for 24 hrs by agar diffusion method; type: functional; settings: for zone of inhibition at 500 µg/mL: read-out: DIZ
[4] = system: Escherichia coli; assay: Antibacterial activity against Escherichia coli ATCC 25922 assessed as diameter of inhibition zone at 0.5 mg/ml incubated for 24 hrs by agar diffusion method; type: functional; settings: for zone of inhibition at 500 µg/mL: read-out: DIZ
[5] = system: Salmonella typhimurium; assay: Antibacterial activity against Salmonella typhi ATCC 6539 assessed as reduction in bacterial growth incubated for 1 day by paper disk diffusion method; type: functional, Salmonella enterica subsp. enterica serovar Typhimurium
[6] = system: Aspergillus brasiliensis; assay: Antifungal activity against Aspergillus brasiliensis ATCC 16404 assessed as reduction in bacterial growth incubated for 3 days by paper disk diffusion method; type: functional; settings: ATCC 16404, 72 h, time 3 day
[7] = system: Enterococcus faecalis; assay: Antibacterial activity against Enterococcus faecalis ATCC 29212 assessed as diameter of inhibition zone at 0.5 mg/ml incubated for 24 hrs by agar diffusion method; type: functional; settings: for zone of inhibition at 500 µg/mL: read-out: DIZ
[8] = system: Staphylococcus aureus; assay: Antibacterial activity against Staphylococcus aureus ATCC 29213 assessed as reduction in bacterial growth incubated for 1 day by paper disk diffusion method; type: functional
[9] = system: Salmonella typhimurium; assay: Antibacterial activity against Salmonella typhi ATCC 6539 assessed as diameter of inhibition zone at 0.5 mg/ml incubated for 24 hrs by agar diffusion method; type: functional, Salmonella enterica subsp. enterica serovar Typhimurium; settings: for zone of inhibition at 500 µg/mL: Salmonella enterica, read-out: DIZ
[10] = system: Escherichia coli; assay: Antibacterial activity against Escherichia coli ATCC 25922 assessed as reduction in bacterial growth incubated for 1 day by paper disk diffusion method; type: functional
[11] = system: Enterococcus faecalis; assay: Antibacterial activity against Enterococcus faecalis ATCC 29212 assessed as reduction in bacterial growth incubated for 1 day by paper disk diffusion method; type: functional
[12] = system: Candida albicans; assay: Antifungal activity against Candida albicans ATCC 10231 assessed as reduction in bacterial growth incubated for 1 day by paper disk diffusion method; type: functional; settings: ATCC 10231, 24 h
[13] = system: Staphylococcus aureus; assay: Antibacterial activity against multidrug resistant Staphylococcus aureus ATCC 43300 assessed as diameter of inhibition zone at 0.5 mg/ml incubated for 24 hrs by agar diffusion method; type: functional; settings: read-out: DIZ
[14] = system: Pseudomonas aeruginosa; assay: Bactericidal activity against Pseudomonas aeruginosa ATCC BAA-2111 incubated for 24 hrs followed by transferring to freshly prepared broth medium and measured after 24 hrs by broth microdilution assay; type: functional; settings: time 48 hrs
[15] = system: Escherichia coli; assay: Antibacterial activity against multidrug resistant Escherichia coli ATCC BAA-196 assessed as reduction in bacterial growth incubated for 1 day by paper disk diffusion method; type: functional; settings: ATCC BAA-196, 24 h
[16] = system: Escherichia coli; assay: Antibacterial activity against multidrug resistant Escherichia coli ATCC BAA-196 assessed as diameter of inhibition zone at 0.5 mg/ml incubated for 24 hrs by agar diffusion method; type: functional; settings: read-out: DIZ
[17] = system: Pseudomonas aeruginosa; assay: Antibacterial activity against multidrug resistant Pseudomonas aeruginosa ATCC BAA-2111 assessed as diameter of inhibition zone at 0.5 mg/ml incubated for 24 hrs by agar diffusion method; type: functional; settings: read-out: DIZ
[18] = system: Staphylococcus aureus; assay: Antibacterial activity against multidrug resistant Staphylococcus aureus ATCC 43300 assessed as reduction in bacterial growth incubated for 1 day by paper disk diffusion method; type: functional; settings: ATCC 43300, 24 h
[19] = system: Staphylococcus aureus; assay: Bactericidal activity against Staphylococcus aureus ATCC 33591 incubated for 24 hrs followed by transferring to freshly prepared broth medium and measured after 24 hrs by broth microdilution assay; type: functional; settings: time 48 hrs
[20] = system: Escherichia coli; assay: Bactericidal activity against Escherichia coli ATCC BAA-196 incubated for 24 hrs followed by transferring to freshly prepared broth medium and measured after 24 hrs by broth microdilution assay; type: functional; settings: time 48 hrs
[21] = system: Staphylococcus aureus; assay: Antibacterial activity against multidrug resistant Staphylococcus aureus ATCC 33591 assessed as diameter of inhibition zone at 0.5 mg/ml incubated for 24 hrs by agar diffusion method; type: functional; settings: read-out: DIZ
[22] = system: Staphylococcus aureus; assay: Bactericidal activity against Staphylococcus aureus ATCC 43300 incubated for 24 hrs followed by transferring to freshly prepared broth medium and measured after 24 hrs by broth microdilution assay; type: functional; settings: time 48 hrs
[23] = system: Pseudomonas aeruginosa; assay: Antibacterial activity against multidrug resistant Pseudomonas aeruginosa ATCC BAA-2111 assessed as reduction in bacterial growth incubated for 1 day by paper disk diffusion method; type: functional; settings: ATCC BAA-2111, 24 h
[24] = system: Staphylococcus aureus; assay: Antibacterial activity against multidrug resistant Staphylococcus aureus ATCC 33591 assessed as reduction in bacterial growth incubated for 1 day by paper disk diffusion method; type: functional; settings: ATCC 33591, 24 h
[25] = system: Candida albicans; assay: Fungicidal activity against Candida albicans ATCC 10231 incubated for 24 hrs followed by transferring to freshly prepared broth medium and measured after 24 hrs by broth microdilution assay; type: functional; settings: time 48 hrs
[26] = system: Aspergillus brasiliensis; assay: Fungicidal activity against Aspergillus brasiliensis ATCC 16404 incubated for 72 hrs followed by transferring to freshly prepared broth medium and measured after 24 hrs by broth microdilution assay; type: functional; settings: time 96 hrs
[27] = Salmonella enterica, ATCC 6539, 24 h
[28] = Salmonella enterica subsp. enterica serovar Typhimurium

CCOC(=O)C1=C(N)OC(C)=C(C(C)=O)C12C(=O)Nc1ccc(S(=O)(=O)N3CCCCC3)cc12 (stereo not given)
zone of inhibition at 500 µg/mL [1]: 13 mm | zone of inhibition at 500 µg/mL [2]: 10 mm | zone of inhibition at 500 µg/mL [3]: 10 mm | zone of inhibition at 500 µg/mL [4]: 16 mm | MIC [5, 27]: 71.1 µg/mL (≈ 145 µM) | MIC [6]: 143 µg/mL (≈ 292 µM) | zone of inhibition at 500 µg/mL [7]: 20 mm | MIC ([8]; ATCC 29213, 24 h): 125 µg/mL (≈ 255 µM) | zone of inhibition at 500 µg/mL [9]: 15 mm | MIC ([10]; ATCC 25922, 24 h): 17.8 µg/mL (≈ 36.3 µM) | MIC ([11]; ATCC 29212, 24 h): 31.2 µg/mL (≈ 63.8 µM) | MIC [12]: 71.1 µg/mL (≈ 145 µM)

CCOC(=O)C1=C(N)OC(c2ccccc2)=C(C(=O)OCC)C12C(=O)Nc1ccc(S(=O)(=O)N3CCOCC3)cc12 (stereo not given)
zone of inhibition at 500 µg/mL [1]: 14 mm | zone of inhibition at 500 µg/mL [2]: 9 mm | zone of inhibition at 500 µg/mL [3]: 17 mm | zone of inhibition at 500 µg/mL [4]: 16 mm | MIC [5, 27]: 125 µg/mL (≈ 214 µM) | MIC [6]: 133 µg/mL (≈ 228 µM) | zone of inhibition at 500 µg/mL [7]: 20 mm | MIC ([8]; ATCC 29213, 24 h): 88.3 µg/mL (≈ 151 µM) | zone of inhibition at 500 µg/mL [9]: 13 mm | MIC ([10]; ATCC 25922, 24 h): 35.5 µg/mL (≈ 60.9 µM) | MIC ([11]; ATCC 29212, 24 h): 31.2 µg/mL (≈ 53.5 µM) | MIC [12]: 88.3 µg/mL (≈ 151 µM)

CCOC(=O)C1=C(c2ccccc2)OC(N)=C(C#N)C12C(=O)Nc1ccc(S(=O)(=O)N3CCOCC3)cc12 (stereo not given)
zone of inhibition at 500 µg/mL [1]: 16 mm | zone of inhibition at 500 µg/mL [2]: 12 mm | zone of inhibition at 500 µg/mL [3]: 13 mm | zone of inhibition at 500 µg/mL [4]: 14 mm | MIC [5, 27]: 133 µg/mL (≈ 248 µM) | MIC [6]: 125 µg/mL (≈ 233 µM) | zone of inhibition at 500 µg/mL [7]: 19 mm | MIC ([8]; ATCC 29213, 24 h): 125 µg/mL (≈ 233 µM) | zone of inhibition at 500 µg/mL [9]: 11 mm | MIC ([10]; ATCC 25922, 24 h): 88.3 µg/mL (≈ 165 µM) | MIC ([11]; ATCC 29212, 24 h): 7.81 µg/mL (≈ 14.6 µM) | MIC [12]: 62.5 µg/mL (≈ 116 µM)

CCn1cc(C(=O)O)c(=O)c2cc(F)c(N3CCNCC3)cc21 [NORFLOXACIN]
zone of inhibition at 500 µg/mL [13]: 25 mm | MBC [14]: 4.69 µg/mL (≈ 14.7 µM) | MIC [15]: 1.57 µg/mL (≈ 4.92 µM) | zone of inhibition at 500 µg/mL [16]: 27 mm | zone of inhibition at 500 µg/mL [17]: 24 mm | MIC [18]: 1.25 µg/mL (≈ 3.91 µM) | MBC [19]: 1.56 µg/mL (≈ 4.89 µM) | MBC [20]: 3.53 µg/mL (≈ 11.1 µM) | zone of inhibition at 500 µg/mL [21]: 26 mm | MBC [22]: 2.81 µg/mL (≈ 8.8 µM) | MIC [23]: 3.13 µg/mL (≈ 9.8 µM) | MIC [24]: 0.78 µg/mL (≈ 2.44 µM)

C[C@@H]1[C@H](O)[C@@H](C)/C=C/C=C/C=C/C=C/C=C/C=C/C=C/[C@H](O[C@@H]2O[C@H](C)[C@@H](O)[C@H](N)[C@@H]2O)C[C@@H]2O[C@](O)(C[C@@H](O)C[C@@H](O)[C@H](O)CC[C@@H](O)C[C@@H](O)CC(=O)O[C@H]1C)C[C@H](O)[C@H]2C(=O)O [AMPHOTERICIN B]
zone of inhibition at 500 µg/mL [1]: 22 mm | diameter of the inhibition zone (DIZ) [3]: inactive | diameter of the inhibition zone (DIZ) [4]: inactive | MIC [5, 28]: inactive | MIC [6]: 31.2 µg/mL (≈ 33.8 µM) | diameter of the inhibition zone (DIZ) [7]: inactive | MFC [25]: 34.6 µg/mL (≈ 37.5 µM) | MIC [8]: inactive | diameter of the inhibition zone (DIZ) [9, 28]: inactive | MIC [10]: inactive | MIC [11]: inactive | MFC [26]: 65.6 µg/mL (≈ 71 µM) | MIC [12]: 15.6 µg/mL (≈ 16.9 µM)

CCOC(=O)C1=C(C)OC(N)=C(C#N)C12C(=O)Nc1ccc(S(=O)(=O)N3CCCCC3)cc12 (stereo not given)
zone of inhibition at 500 µg/mL [1]: 15 mm | zone of inhibition at 500 µg/mL [2]: 10 mm | zone of inhibition at 500 µg/mL [3]: 17 mm | zone of inhibition at 500 µg/mL [4]: 17 mm | MIC [5, 27]: 125 µg/mL (≈ 265 µM) | MIC [6]: 143 µg/mL (≈ 302 µM) | zone of inhibition at 500 µg/mL [7]: 18 mm | MIC ([8]; ATCC 29213, 24 h): 83.3 µg/mL (≈ 176 µM) | zone of inhibition at 500 µg/mL [9]: 13 mm | MIC ([10]; ATCC 25922, 24 h): 35.5 µg/mL (≈ 75.2 µM) | MIC ([11]; ATCC 29212, 24 h): 71.1 µg/mL (≈ 150 µM) | MIC [12]: 62.5 µg/mL (≈ 132 µM)

CCOC(=O)C1=C(N)OC(c2ccccc2)=C(C(C)=O)C12C(=O)Nc1ccc(S(=O)(=O)N3CCCCC3)cc12 (stereo not given)
zone of inhibition at 500 µg/mL [1]: 13 mm | zone of inhibition at 500 µg/mL [2]: 17 mm | zone of inhibition at 500 µg/mL [3]: 18 mm | zone of inhibition at 500 µg/mL [4]: 20 mm | MIC [5, 27]: 88.3 µg/mL (≈ 160 µM) | MIC [6]: 125 µg/mL (≈ 227 µM) | zone of inhibition at 500 µg/mL [7]: 20 mm | MIC ([8]; ATCC 29213, 24 h): 88.3 µg/mL (≈ 160 µM) | zone of inhibition at 500 µg/mL [9]: 15 mm | MIC ([10]; ATCC 25922, 24 h): 17.8 µg/mL (≈ 32.2 µM) | MIC ([11]; ATCC 29212, 24 h): 17.8 µg/mL (≈ 32.2 µM) | MIC [12]: 62.5 µg/mL (≈ 113 µM)
